Strand notation (5' to 3'): a small letter for the sugar, then the base; units joined by * are phosphorothioate-linked, units joined directly phosphodiester-linked; [ ] holds rarer units or linkages, { } end groups; capitals alone tell only the bases. e = 2'-O-(2-methoxyethyl) (MOE); [5mC] = 5-methylcytosine; d = 2'-deoxy (DNA)
test system: human Factor 7 mRNA; assay: Antisense inhibition of human Factor 7 mRNA in HepB3 cells, 50 nM antisense oligonucleotide, lipofectin; type: cell-based; settings: Table 1, 50 nM, lipofectin, approximately 24 hours, relative to untreated control cells
Summary of the method: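 Cells plated at 4,000 per well were transfected and harvested after approximately 24 hours of treatment. Transcript levels, measured with primer probe set RTS 2927, were normalised to total RNA by RIBOGREEN®. Values are percent inhibition relative to untreated control cells.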

Q: “407923 (antisense e[5mC]*eA*eG*eG*eA*d[5mC]*dA*dG*dT*dT*d[5mC]*dG*dA*d[5mC]*dG*e[5mC]*eA*eG*e[5mC]*e[5mC]) [compound 407923]” was tested. Which “% Inhibition” value did it give?
A: Its value is 76%.

Q: “407918 (antisense e[5mC]*e[5mC]*eT*eG*eG*dT*dG*dT*dA*d[5mC]*dA*d[5mC]*d[5mC]*d[5mC]*d[5mC]*eA*eA*eA*eG*eT) [compound 407918]” was tested. Which “% Inhibition” value did it give?
A: The value was 72%.

Q: How did the “% Inhibition” value turn out when “407596 (antisense eG*eA*eG*eG*e[5mC]*d[5mC]*d[5mC]*d[5mC]*dG*dG*d[5mC]*dT*dT*d[5mC]*d[5mC]*eA*e[5mC]*eG*eG*e[5mC]) [compound 407596]” was run?
A: The value was 61%.

Q: For “407916 (antisense eG*eT*eG*eG*e[5mC]*d[5mC]*d[5mC]*dA*d[5mC]*dG*dG*dT*dT*dG*d[5mC]*eG*e[5mC]*eA*eG*e[5mC]) [compound 407916]”, which “% Inhibition” value is on record?
A: The value was 53%.

Q: “407963 (antisense eA*eG*eA*eG*e[5mC]*dA*dG*dG*dG*dT*dG*d[5mC]*d[5mC]*dT*dT*eG*eG*eA*eA*eG) [compound 407963]” was tested. Which “% Inhibition” value did it give?
A: The value was 33%.

Q: How did the “% Inhibition” value turn out when “407637 (antisense eG*eT*eA*e[5mC]*eT*dG*dG*dG*dA*dG*dA*d[5mC]*d[5mC]*d[5mC]*dT*eG*eG*eT*eG*eT) [compound 407637]” was run?
A: Its value is 71%.

Q: For “407626 (antisense eT*e[5mC]*eT*eT*eG*dA*dT*dT*dT*dT*dG*dT*d[5mC]*dG*dA*eA*eA*e[5mC]*eA*eG) [compound 407626]”, which “% Inhibition” value is on record?
A: The value was 82%.

Q: With “407638 (antisense eG*e[5mC]*e[5mC]*eA*e[5mC]*dT*d[5mC]*dG*dA*dT*dG*dT*dA*d[5mC]*dT*eG*eG*eG*eA*eG) [compound 407638]” as the substance, how does the “% Inhibition” value read?
A: Its value is 0%.

Q: Which “% Inhibition” value does the source give for “407913 (antisense eG*eA*eT*eG*e[5mC]*d[5mC]*d[5mC]*dG*dT*d[5mC]*dA*dG*dG*dT*dA*e[5mC]*e[5mC]*eA*e[5mC]*eG) [compound 407913]” here?
A: The value was 74%.

Q: For “407895 (antisense e[5mC]*eA*e[5mC]*eA*e[5mC]*dA*dG*dA*dT*d[5mC]*dA*dG*d[5mC]*dT*dG*eG*eT*e[5mC]*eA*eT) [compound 407895]”, which “% Inhibition” value is on record?
A: The value was 72%.

Q: “407634 (antisense eG*eT*eG*eA*e[5mC]*dT*dG*d[5mC]*dT*dG*d[5mC]*dA*dG*dG*d[5mC]*eA*eG*eT*e[5mC]*e[5mC]) [compound 407634]” was tested. Which “% Inhibition” value did it give?
A: The value was 24%.

same assay, conditions: Table 6, 50 nM, lipofectin, approximately 24 hours

Q: “422196 (antisense eT*eA*e[5mC]*dT*dG*dA*dG*d[5mC]*dG*d[5mC]*dG*dG*dA*dA*dG*dA*dA*eG*eG*eG) [compound 422196]” was tested. Which “% Inhibition” value did it give?
A: The value was 2%.

Q: With “422274 (antisense eT*eT*dA*d[5mC]*dT*dG*dA*dG*d[5mC]*dG*d[5mC]*dG*dG*dA*dA*eG*eA*eA*eG*eG) [compound 422274]” as the substance, how does the “% Inhibition” value read?
A: Its value is 24%.

Q: With “422191 (antisense eA*eG*e[5mC]*dG*d[5mC]*dG*dG*dA*dA*dG*dA*dA*dG*dG*dG*dA*d[5mC]*eG*eG*eA) [compound 422191]” as the substance, how does the “% Inhibition” value read?
A: Its value is 27%.

same assay, conditions: gapmers targeted to nucleobases 4868 to 4899 of SEQ ID NO: 1, Table 8

Q: How did the “% Inhibition of human Factor 7 mRNA levels” value turn out when “416509 (antisense eA*eG*eG*eA*eG*d[5mC]*d[5mC]*d[5mC]*dG*dA*dG*dT*dT*d[5mC]*dT*eG*e[5mC]*eA*eG*eG) [compound 416509]” was run?
A: Its value is 60%.

Q: How did the “% Inhibition of human Factor 7 mRNA levels” value turn out when “422143 (antisense e[5mC]*e[5mC]*eG*eA*eG*dT*dT*d[5mC]*dT*dG*d[5mC]*dA*dG*dG*dA*eG*e[5mC]*eG*eG*e[5mC]) [compound 422143]” was run?
A: Its value is 70%.

Q: How did the “% Inhibition of human Factor 7 mRNA levels” value turn out when “422218 (antisense e[5mC]*eG*eA*dG*dT*dT*d[5mC]*dT*dG*d[5mC]*dA*dG*dG*dA*dG*d[5mC]*dG*eG*e[5mC]*e[5mC]) [compound 422218]” was run?
A: The value was 70%.

same assay, conditions: lipofectin, 50 nM antisense oligonucleotide, approximately 24 hours, Factor 7 mRNA by real-time RT-PCR (RTS 2927), relative to untreated control

Q: “416484 (antisense eT*eA*e[5mC]*eA*eG*d[5mC]*d[5mC]*dT*d[5mC]*dA*dA*dA*d[5mC]*dA*dT*e[5mC]*eT*eA*eT*e[5mC]) [compound 416484]” was tested. Which “% Inhibition” value did it give?
A: The value was 0%.

Q: “416509 (antisense eA*eG*eG*eA*eG*d[5mC]*d[5mC]*d[5mC]*dG*dA*dG*dT*dT*d[5mC]*dT*eG*e[5mC]*eA*eG*eG) [compound 416509]” was tested. Which “% Inhibition” value did it give?
A: The value was 56%.

Q: With “416500 (antisense e[5mC]*eT*eG*eA*eA*d[5mC]*dA*d[5mC]*d[5mC]*d[5mC]*d[5mC]*dA*dG*d[5mC]*dT*eG*eA*eG*eA*eG) [compound 416500]” as the substance, how does the “% Inhibition” value read?
A: The value was 1%.

Q: With “416543 (antisense eT*e[5mC]*e[5mC]*eT*eG*d[5mC]*dG*dA*dG*dT*dG*dG*dG*dA*dG*eT*eT*eG*eG*eA) [compound 416543]” as the substance, how does the “% Inhibition” value read?
A: Its value is 0%.

Q: With “416515 (antisense eT*eA*eG*eG*e[5mC]*dA*dT*dG*dA*d[5mC]*d[5mC]*dA*dT*d[5mC]*d[5mC]*eT*e[5mC]*eA*eA*eT) [compound 416515]” as the substance, how does the “% Inhibition” value read?
A: Its value is 39%.

Q: For “416523 (antisense eT*e[5mC]*eT*e[5mC]*eG*dA*dG*dG*dG*d[5mC]*dT*dG*dA*dG*dA*eA*eT*eT*eG*e[5mC]) [compound 416523]”, which “% Inhibition” value is on record?
A: The value was 18%.

Q: For “416469 (antisense eG*e[5mC]*eA*eG*e[5mC]*d[5mC]*dA*d[5mC]*dT*d[5mC]*dG*dA*dT*dG*dT*eA*e[5mC]*eT*eG*eG) [compound 416469]”, which “% Inhibition” value is on record?
A: The value was 55%.

Q: How did the “% Inhibition” value turn out when “416476 (antisense eG*e[5mC]*eA*eG*eG*dT*dG*dG*dG*d[5mC]*dT*dT*dG*dG*d[5mC]*eT*eG*eA*eA*eG) [compound 416476]” was run?
A: Its value is 58%.

Q: “416492 (antisense eG*eG*eA*eT*e[5mC]*dA*dT*dT*d[5mC]*dT*dG*dG*d[5mC]*d[5mC]*d[5mC]*eT*eG*eA*eG*e[5mC]) [compound 416492]” was tested. Which “% Inhibition” value did it give?
A: Its value is 13%.

same assay, conditions: oligonucleotides targeted to nucleobases 11830 to 11869 of SEQ ID NO: 1 (Table 9)

Q: With “422088 (antisense eT*e[5mC]*eA*eG*eG*dG*d[5mC]*dT*dG*dG*dT*dT*dT*dT*dG*eG*eA*eG*eG*eA) [compound 422088]” as the substance, how does the “% Inhibition (human Factor 7 mRNA levels)” value read?
A: Its value is 8%.

Q: Which “% Inhibition (human Factor 7 mRNA levels)” value does the source give for “422240 (antisense eA*eG*dA*d[5mC]*dA*dA*dT*dG*dG*dT*d[5mC]*dA*dG*dG*dG*e[5mC]*eT*eG*eG*eT) [compound 422240]” here?
A: Its value is 66%.

Q: Which “% Inhibition (human Factor 7 mRNA levels)” value does the source give for “422158 (antisense eA*eT*eG*dG*dT*d[5mC]*dA*dG*dG*dG*d[5mC]*dT*dG*dG*dT*dT*dT*eT*eG*eG) [compound 422158]” here?
A: Its value is 49%.

Q: Which “% Inhibition (human Factor 7 mRNA levels)” value does the source give for “422248 (antisense eG*eG*d[5mC]*dT*dG*dA*dG*dG*dA*dG*dA*d[5mC]*dA*dA*dT*eG*eG*eT*e[5mC]*eA) [compound 422248]” here?
A: The value was 60%.

Q: For “422097 (antisense eG*eA*eG*eA*e[5mC]*dA*dA*dT*dG*dG*dT*d[5mC]*dA*dG*dG*eG*e[5mC]*eT*eG*eG) [compound 422097]”, which “% Inhibition (human Factor 7 mRNA levels)” value is on record?
A: Its value is 59%.

same assay, conditions: oligonucleotides targeted to nucleobases 13760 to 13789 of SEQ ID NO: 1 (Table 10)

Q: “422182 (antisense e[5mC]*eG*e[5mC]*d[5mC]*dA*d[5mC]*d[5mC]*d[5mC]*dG*d[5mC]*d[5mC]*dG*dG*d[5mC]*dT*d[5mC]*dT*eG*e[5mC]*eT) [compound 422182]” was tested. Which “% Inhibition (human Factor 7 mRNA levels)” value did it give?
A: The value was 11%.

Q: Which “% Inhibition (human Factor 7 mRNA levels)” value does the source give for “422178 (antisense eA*e[5mC]*e[5mC]*d[5mC]*dG*d[5mC]*d[5mC]*dG*dG*d[5mC]*dT*d[5mC]*dT*dG*d[5mC]*dT*d[5mC]*eA*eT*e[5mC]) [compound 422178]” here?
A: The value was 37%.

Q: “422115 (antisense eG*e[5mC]*eG*e[5mC]*e[5mC]*dA*d[5mC]*d[5mC]*d[5mC]*dG*d[5mC]*d[5mC]*dG*dG*d[5mC]*eT*e[5mC]*eT*eG*e[5mC]) [compound 422115]” was tested. Which “% Inhibition (human Factor 7 mRNA levels)” value did it give?
A: Its value is 66%.

Q: With “422116 (antisense eT*eG*e[5mC]*eG*e[5mC]*d[5mC]*dA*d[5mC]*d[5mC]*d[5mC]*dG*d[5mC]*d[5mC]*dG*dG*e[5mC]*eT*e[5mC]*eT*eG) [compound 422116]” as the substance, how does the “% Inhibition (human Factor 7 mRNA levels)” value read?
A: The value was 52%.

Q: “422260 (antisense eG*e[5mC]*dG*d[5mC]*d[5mC]*dA*d[5mC]*d[5mC]*d[5mC]*dG*d[5mC]*d[5mC]*dG*dG*d[5mC]*eT*e[5mC]*eT*eG*e[5mC]) [compound 422260]” was tested. Which “% Inhibition (human Factor 7 mRNA levels)” value did it give?
A: Its value is 56%.

Q: For “422255 (antisense eA*e[5mC]*d[5mC]*d[5mC]*dG*d[5mC]*d[5mC]*dG*dG*d[5mC]*dT*d[5mC]*dT*dG*d[5mC]*eT*e[5mC]*eA*eT*e[5mC]) [compound 422255]”, which “% Inhibition (human Factor 7 mRNA levels)” value is on record?
A: The value was 30%.

same assay, conditions: oligonucleotides targeted to nucleobases 14707 to 14732 of SEQ ID NO: 1 (Table 11)

Q: For “422283 (antisense e[5mC]*eA*dG*d[5mC]*dA*dG*d[5mC]*d[5mC]*dT*dG*dA*dG*dG*d[5mC]*d[5mC]*eA*eG*e[5mC]*eA*eG) [compound 422283]”, which “% Inhibition (human Factor 7 mRNA levels)” value is on record?
A: The value was 50%.

Q: With “422202 (antisense eA*eG*e[5mC]*d[5mC]*dT*dG*dA*dG*dG*d[5mC]*d[5mC]*dA*dG*d[5mC]*dA*dG*dA*eT*e[5mC]*eA) [compound 422202]” as the substance, how does the “% Inhibition (human Factor 7 mRNA levels)” value read?
A: The value was 49%.

Q: “422277 (antisense e[5mC]*e[5mC]*dT*dG*dA*dG*dG*d[5mC]*d[5mC]*dA*dG*d[5mC]*dA*dG*dA*eT*e[5mC]*eA*e[5mC]*eG) [compound 422277]” was tested. Which “% Inhibition (human Factor 7 mRNA levels)” value did it give?
A: The value was 56%.

same assay, conditions: oligonucleotides targeted to nucleobases 15098 to 15122 of SEQ ID NO: 1 (Table 12)

Q: “422285 (antisense eG*e[5mC]*dA*d[5mC]*dA*d[5mC]*dA*dT*dG*dG*dA*dG*dT*d[5mC]*dA*eG*e[5mC]*eA*eT*e[5mC]) [compound 422285]” was tested. Which “% Inhibition (human Factor 7 mRNA levels)” value did it give?
A: The value was 39%.

Q: Which “% Inhibition (human Factor 7 mRNA levels)” value does the source give for “422208 (antisense eG*e[5mC]*eA*d[5mC]*dA*d[5mC]*dA*dT*dG*dG*dA*dG*dT*d[5mC]*dA*dG*d[5mC]*eA*eT*e[5mC]) [compound 422208]” here?
A: The value was 56%.
